Measurements taken from paper PMC9229843, “Cancer-Related Somatic Mutations in Transmembrane Helices Alter Adenosine A1 Receptor Pharmacology” (Molecules, 2022).
Where a chain is given by its changes, count along the chain named.

Assays:
wild type hA1AR = target: T1, wild type hA1AR (Homo sapiens, UniProt P30542); conditions: [35S]GTPγS; CPA at EC80; ratio over basal activity of wild type or mutant hA1AR
T1 sequence (P30542 1-326): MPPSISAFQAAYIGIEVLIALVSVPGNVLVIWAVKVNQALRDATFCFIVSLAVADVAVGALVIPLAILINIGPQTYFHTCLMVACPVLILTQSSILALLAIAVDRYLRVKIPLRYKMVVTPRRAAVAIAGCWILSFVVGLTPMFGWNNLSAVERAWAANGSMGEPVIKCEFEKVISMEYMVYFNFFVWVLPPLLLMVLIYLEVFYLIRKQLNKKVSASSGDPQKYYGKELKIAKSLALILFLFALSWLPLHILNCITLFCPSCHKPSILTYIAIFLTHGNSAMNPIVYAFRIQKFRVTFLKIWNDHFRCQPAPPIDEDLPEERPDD
Protocol: (§1) Transient transfection of CHO cells with wild type or mutated hA1AR plasmid constructs was performed using a polyethylenimine (PEI) method. Cells were seeded in 10-cm culture dishes to achieve 50–60% confluency 24 h prior to transfection. On the day of transfection, cells were transfected with a PEI: DNA ratio of 3:1 and a plasmid DNA amount of 10 μg/dish. Moreover, 24 h post-transfection, the medium was refreshed, and 48 h after transfection, cells were collected and membranes were prepared as previously described. Membranes were aliquoted in 250 or 100 μL and stored at −80 °C. Membrane protein concentrations were determined using the BCA method.
(§2) [^35S]GTPγS binding assays were adapted from a previously published method. […] Then, 20 µL of [^35S]GTPγS (final concentration of 0.3 nM) was added to each well, followed by 90 min of incubation at 25 °C. Incubations were terminated and filter-bound radioactivity was measured as described above.
(§3) All experimental data were analyzed by GraphPad Prism 7.0 or 8.0 (GraphPad Software Inc., San Diego, CA, USA). Data from yeast liquid growth and [^35S]GTPγS binding assays were analyzed by non-linear regression using “log (agonist) vs. response (three parameters)” or “log (inhibitor) vs. response (three parameters)” to obtain potency (EC50), inhibitory potency (IC50), and efficacy (Emax or Imax) values. The radioligand displacement curves were obtained from a statistically preferred one-site or two-site binding model. pKi values were calculated from pIC50 values using the Cheng–Prusoff equation, where KD values were obtained from the homologous competition assays from this study and calculated by non-linear regression using “one site–homologous” [62].

hA1AR G279S^7.44 = target: T2, hA1AR G279S^7.44 (Homo sapiens, UniProt P30542, G279S); conditions: [35S]GTPγS; CPA at EC80; ratio over basal activity of wild type or mutant hA1AR
T2 sequence (P30542 1-326 G279S): T1 sequence (P30542 1-326) with G279S
Protocol: as §1, §2, §3

hA1AR S246T^6.47 = target: T3, hA1AR S246T^6.47 (Homo sapiens, UniProt P30542, S246T); conditions: [35S]GTPγS; CPA at EC80; ratio over basal activity of wild type or mutant hA1AR
T3 sequence (P30542 1-326 S246T): T1 sequence (P30542 1-326) with S246T
Protocol: as §1, §2, §3

hA1AR L134F^4.52 = target: T4, hA1AR L134F^4.52 (Homo sapiens, UniProt P30542, L134F); conditions: [35S]GTPγS; CPA at EC80; ratio over basal activity of wild type or mutant hA1AR
T4 sequence (P30542 1-326 L134F): T1 sequence (P30542 1-326) with L134F
Protocol: as §1, §2, §3

hA1AR H78L^3.23 [1] = target: T5, hA1AR H78L^3.23 (Homo sapiens, UniProt P30542, H78L); conditions: [35S]GTPγS; CPA at EC80; ratio over basal activity of wild type or mutant hA1AR
T5 sequence (P30542 1-326 H78L): T1 sequence (P30542 1-326) with H78L
Protocol: as §1, §2, §3

hA1AR W188C^5.46 = target: T6, hA1AR W188C^5.46 (Homo sapiens, UniProt P30542, W188C); conditions: [35S]GTPγS; CPA at EC80; ratio over basal activity of wild type or mutant hA1AR
T6 sequence (P30542 1-326 W188C): T1 sequence (P30542 1-326) with W188C
Protocol: as §1, §2, §3

hA1AR H78L^3.23 [2] = target: T5, hA1AR H78L^3.23; assay: yeast liquid growth assay; type: cell-based; conditions: result in words
Protocol: The plasmids, pDT-PGK_hA1AR, containing either wild type or mutated hA1AR were transformed into a MMY24 S. cerevisiae strain following the lithium acetate procedure.
In order to characterize the mutant hA1ARs, liquid growth assays in 96-well plates were performed to obtain concentration–growth curves as previously described. […] The overnight cultures were then diluted to 40,000 cells/mL (OD600 ≈ 0.02) in a selective medium without uracil, leucine, and histidine (YNB-ULH). For the determination of constitutive activity, 50 μL of yeast cells and 150 μL of YNB-ULH medium containing different concentrations of 3-AT and 0.8 IU/mL ADA were then added to each well. To obtain concentration–growth curves, 2 μL of various concentrations of ligands, 50 μL of yeast cells, and 150 μL of YNB-ULH medium containing 7 mM 3-AT and 0.8 IU/mL ADA were then added to each well. After incubation at 30 °C for 35 h in a Genios plate reader (TECAN, Zürich, Switzerland) with shaking for 1 min at 300 rpm every 10 min, the optical density was measured at a wavelength of 595 nm, which represented the level of yeast cell growth.
as §3

Structure (SMILES): CCCn1c(=O)c2[nH]c(C3CCCC3)nc2n(CCC)c1=O [DPCPX, 8-cyclopentyl-1,3-dipropylxanthine]
- Imax (wild type hA1AR): 0.67 ± 0.05
- Imax (hA1AR G279S^7.44): 0.65 ± 0.08
- Imax (hA1AR S246T^6.47): 0.70 ± 0.05
- Imax (hA1AR L134F^4.52): 0.68 ± 0.01
- Imax (hA1AR H78L^3.23 [1]): 0.83 ± 0.03
- Imax (hA1AR W188C^5.46): 0.74 ± 0.03
- reduction of constitutive activity by inverse agonist (hA1AR H78L^3.23 [2]): not reduced
